In ChEMBL document CHEMBL5335813, “Gausemycin Antibiotic Family Acts via Ca2+-Dependent Membrane Targeting” (2024):
Values after ≈ are worked out from the molar mass of the structure shown. Active and inactive are the calls of the source. The rule behind the calls is not given here.

Key:
[1] = tested on: Staphylococcus aureus; assay: Antimicrobial activity against Staphylococcus aureus ATCC 29213 assessed as microbial growth inhibition measured after 18 hrs by CLSI based broth microdilution method; format: functional
[2] = tested on: Staphylococcus aureus; assay: Antimicrobial activity against Staphylococcus aureus ATCC 29213 assessed as microbial growth inhibition at pH 5 to 6 by susceptibility testing method; format: functional, organism-based

Structure (SMILES)	MIC [1]	growth inhibition (GI) [2]
CC(C)/C=C/C=C\C(=O)NCCC(=O)N[C@@H](CCCN)C(=O)NC(CC(O)c1ccccc1)C(=O)NC(C(=O)N[C@@H](Cc1ccc(O)cc1)C(=O)NC1C(=O)N[C@H](CC(C)C)C(=O)N[C@@H](CC(=O)O)C(=O)NCC(=O)N[C@@H](CO)C(=O)NCC(=O)N[C@@H](CC(=O)c2ccc(Cl)cc2N)C(=O)N[C@@H](C)C(=O)N2CCC[C@H]2C(=O)NC1C)C(O)CC(=O)O (stereo not given in full)	8 µg/mL (≈ 4.66 µM)	–
NCC[C@H](O)C(=O)N[C@@H]1C[C@H](N)[C@@H](O[C@H]2O[C@H](CN)[C@@H](O)[C@H](O)[C@H]2O)[C@H](O)[C@H]1O[C@H]1O[C@H](CO)[C@@H](O)[C@H](N)[C@H]1O	–	Active
CN[C@H](CC(C)C)C(=O)N[C@H]1C(=O)N[C@@H](CC(N)=O)C(=O)N[C@H]2C(=O)N[C@H]3C(=O)N[C@H](C(=O)N[C@H](C(=O)O)c4cc(O)cc(O)c4-c4cc3ccc4O)[C@H](O)c3ccc(c(Cl)c3)Oc3cc2cc(c3O[C@@H]2O[C@H](CO)[C@@H](O)[C@H](O)[C@H]2O[C@H]2C[C@](C)(N)[C@H](O)[C@H](C)O2)Oc2ccc(cc2Cl)[C@H]1O	–	Active
NC[C@H]1O[C@H](O[C@H]2[C@H](O)[C@@H](O[C@H]3O[C@H](CO)[C@@H](O)[C@H](N)[C@H]3O)[C@H](N)C[C@@H]2N)[C@H](N)C[C@@H]1O	–	Active
CNCCC(=O)NCCC[C@H](NC(=O)CCNC(=O)/C=C\C=C\C(C)C)C(=O)NC(CC(O)c1ccccc1)C(=O)NC(C(=O)N[C@@H](Cc1ccc(O)cc1)C(=O)NC1C(=O)N[C@H](CC(C)C)C(=O)N[C@@H](CC(=O)O)C(=O)NCC(=O)N[C@@H](CO)C(=O)NCC(=O)N[C@@H](CC(=O)c2ccc(Cl)cc2N)C(=O)N[C@@H](C)C(=O)N2CCC[C@H]2C(=O)NC1C)C(O)CC(=O)O (stereo not given in full)	16 µg/mL (≈ 8.89 µM)	–
